In BigSolDB 2.1:

CCOC(=O)CCC(=O)O[C@H]1[C@H](O[C@@H]2[C@@H](C)[C@H](O[C@H]3C[C@@](C)(OC)[C@@H](O)[C@H](C)O3)[C@@H](C)C(=O)O[C@H](CC)[C@@](C)(O)[C@H](O)[C@@H](C)C(=O)[C@H](C)C[C@@]2(C)O)O[C@H](C)C[C@@H]1N(C)C
solubility (mole fraction)
Settings | 288.15 K | 293.15 K | 298.15 K | 303.15 K | 308.15 K | 313.15 K | 318.15 K | 323.15 K
in THF | 0.036 | 0.0416 | 0.0491 | 0.058 | 0.0684 | 0.081 | 0.0977 | 0.114
in acetone | 0.0138 | 0.0175 | 0.0219 | 0.0268 | 0.0347 | 0.0425 | 0.0527 | 0.0614
in acetonitrile | 0.0019 | 0.00252 | 0.00332 | 0.00397 | 0.00504 | 0.00703 | 0.00906 | 0.0114
in ethanol | 0.00762 | 0.00966 | 0.0128 | 0.017 | 0.0242 | 0.0323 | 0.0414 | 0.0518
in isopropanol | 0.00814 | 0.0106 | 0.0141 | 0.0187 | 0.0249 | 0.0342 | 0.0459 | 0.0556
in n-hexane | 9.26e-05 | 0.000129 | 0.000158 | 0.000213 | 0.000286 | 0.000371 | 0.000562 | 0.000698
